Data on seven compounds can be found in PubChem BioAssay (NCI).

Holding throughout (experiment): inhibition of tumour cell growth, NCI panel, 48 h
Assay [1] relates to MDA-MB-435.
The test system of assay [2] is HT29 colon.
Assay [3] relates to SK-OV-3 ovarian.
Assay [4] concerns SNB-19 CNS.
Assay [5] has as its system MALME-3M melanoma.
Assay [6] has as its system COLO 205 colon.
Assay [7] deals with EKVX NSCLC.
Assay [8] deals with OVCAR-3 ovarian.
Assay [9] has as its system HL-60(TB) leukemia.
Assay [10] relates to NCI-H460 lung.

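Results reflect a 48-hour exposure of cells in 96-well plates to compound at five concentrations. Here, GI50 denotes the concentration required for 50% inhibition of growth. TGI is the concentration that stops growth completely.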

Turning to `O=C(NNc1nc2c(F)cccc2n2cccc12)c1cnccn1`, the GI50 in assay [1] was 0.821 µM; in [2] it was 0.604 µM; in [3], 0.527 µM; in assay [4], 0.545 µM; in assay [5] it was 1.63 µM; in assay [6] it was 0.426 µM. In addition, the GI50 in [7] was 0.421 µM; in assay [8], 0.454 µM; in [9], 0.409 µM; in assay [10], 0.331 µM. For the same compound, the TGI in [1] was 26.3 µM; in assay [2], 50.3 µM; in assay [3] it was 27.8 µM; in [4] it was greater than 100 µM; in assay [5] it was greater than 77.1 µM; in assay [6], greater than 33.4 µM. Also, the TGI stood at 30 µM in assay [7], 13.6 µM in [8], 4.74 µM in assay [9] and 11 µM in [10].
With `Cc1cc2nc3c4cc(Cl)ccc4n(CCN(C)C)c3nc2cc1C`, the GI50 in assay [1] is 1.69 µM; in [2], 1.13 µM; in assay [3] it was 2.75 µM; in assay [4] it was 1.92 µM; in assay [5] it was 1.72 µM; in [6], 1.28 µM. Besides, the GI50 in assay [7] was 2.45 µM; in assay [8] it was 1.92 µM; in assay [9], 1.93 µM; in assay [10], 1.34 µM. Besides, the TGI was determined as 3.19 µM in assay [1]; 3.66 µM in assay [2]; 10.6 µM in assay [3]; 6.83 µM in assay [4]; 3.33 µM in assay [5]; 3.24 µM in assay [6]. Moreover, the TGI amounted to 6.77 µM in [7], 4.76 µM in assay [8], 4.33 µM in assay [9] and 2.85 µM in [10].
As to `CCn1c(-c2nonc2N)nc2c(C#CCN)ncc(OCCCN)c21`, the GI50 in assay [1], in [2], in assay [3], in assay [4], in assay [5] and in assay [6] was greater than 25 µM each time. Besides, the GI50 in assay [7], in assay [8], in [9] and in [10] was greater than 25 µM each time. Besides, the TGI in assay [1], in [2], in assay [3], in [4], in assay [5] and in [6] was greater than 25 µM throughout. The TGI in [7], in [8], in assay [9] and in assay [10] was greater than 25 µM each time.
As for `COc1cc2ncn(-c3cc(OCc4ccccc4Cl)c(C(N)=O)s3)c2cc1OC`, the GI50 in assay [1] was 0.0745 µM; in assay [2], 0.0921 µM; in assay [3], 0.274 µM; in assay [4], 1 µM; in assay [5], greater than 25 µM; in assay [6] it was 0.111 µM. The GI50 in assay [7] is 1.25 µM; in assay [8], 0.0867 µM; in assay [9], 0.0741 µM; in assay [10], 0.146 µM. The TGI in [1] is 0.351 µM; in assay [2], greater than 25 µM; in assay [3], 9.32 µM; in [4], greater than 25 µM; in assay [5], greater than 25 µM; in [6], greater than 25 µM. For the same compound, the TGI in [7] is greater than 25 µM; in [8], 1.99 µM; in assay [10] it was greater than 8.64 µM.
For `NC(N)=N/N=C(/c1ccccc1)c1ccc(F)cc1`, the GI50 is 0.203 µM in [1]; 0.3 µM in assay [2]; 0.371 µM in assay [3]; 0.476 µM in [4]; 0.368 µM in assay [5]; 0.267 µM in assay [6]. Also, the GI50 in [7] is 0.65 µM; in assay [8] it was 0.227 µM; in [9], 3.67 µM; in assay [10] it was 0.342 µM. Also, the TGI in assay [1] came to 0.834 µM; in [2] it was 2.63 µM; in assay [3] it was 12.8 µM; in assay [4] it was 19.5 µM; in assay [5], 22 µM; in assay [6], 0.841 µM. The TGI stood at 36.5 µM in assay [7], 0.621 µM in assay [8] and 10.8 µM in [10].
Take `COc1cc(-n2cc(-c3ccc(Cl)c(Cl)c3)nc2SCc2ccccc2)cc(OC)c1OC`: the GI50 in [1], in assay [2], in assay [3], in [4], in assay [5] and in assay [6] was greater than 100 µM in each case. Also, the GI50 in [7], in [8], in assay [9] and in [10] was greater than 100 µM in each case. Further, the TGI in [1], in assay [2], in assay [3], in assay [4], in assay [5] and in [6] was greater than 100 µM throughout. In addition, the TGI in assay [7], in assay [8], in assay [9] and in assay [10] was greater than 100 µM in each case.
Regarding `N#CC(=C1SCS1)[N+](=O)[O-]`, the GI50 in [1] was 1.48 µM; in assay [2] it was 0.336 µM; in [3] it was 5.35 µM; in [4], 9.36 µM; in assay [5], 3.21 µM; in [6], 1.41 µM. The GI50 in assay [7] is 12.4 µM; in [8], 1.13 µM; in [9], 0.618 µM; in assay [10], 2.99 µM. Also, the TGI in assay [1] came out at 16.9 µM; in assay [2], 11.2 µM; in [3] it was 43.3 µM; in [4], 83.5 µM; in assay [5], 18.1 µM; in assay [6], 3.92 µM. Moreover, the TGI in assay [7] stood at 31.1 µM; in assay [8], 3.92 µM; in assay [9], 6.36 µM; in assay [10] it was 10.1 µM.
